Source: patent US6106866A, “In vivo agents comprising cationic drugs, peptides and metal chelators with acidic saccharides and glycosaminoglycans, giving improved site-selective localization, uptake mechanism, sensitivity and kinetic-spatial profiles, including tumor sites” (Access Pharmaceuticals, Inc., priority 1995, dated 2000)
In brackets after ≈: the same amount, converted by molar mass. Several values for one entry are separate records, joined by “and”; a condition that tells them apart may be missing. Equal values may be shown once. Entries after “also recorded” stand apart in the source; their conditions may differ. No end group written: not given here. *: point of attachment. For = O=C*

Experiments:
[1] = Binding of complexes to heparin or sucrose octasulfate (dialysis, UV-Visible titration, solubilization)
Procedure: UV-Visible spectrophotometric titration indicates maximum binding occurs at a molar ratio of 18:1 (iron-porphine:heparin).
(a) To this resulting aqueous dispersion of complex is added beef lung heparin, to give final complex-to-heparin ratios of between 95:5 and 5:95 (by weight). […] This apparent solubilization is indicative of paired-ion binding between triethylenetetraamine-iron and heparin.
(b) To the aqueous dispersion of triethylenetetraamine-iron complex is added sucrose octasulfate (SOS), to give final complex-to-SOS ratios of between 95:5 and 5:95 (by weight).

[2] = test system: acute myocardial infarct; assay: MRI contrast enhancement of acute myocardial infarcts; format: in vivo, German Shepherd dogs; conditions: 0.155 mmol/Kg
Description: FIG. 11A, FIG. 11B, FIG. 11C and FIG. 11D show T1-weighted MRI ECG-gated cardiovascular images performed at 0.5 Tesla, before (Pre) and after (Post) rapid intravenous (i.v.) infusion of Ferrioxamine:Dermatan Sulfate Selective Paramagnetic Contrast Agent prepared as in Examples 2 and 5, and injected i.v. at an Iron(III) dose of 0.155 mmol/Kg into German Shepherd dogs with acute, 90-min myocardial infarcts (ligature of proximal left anterior descending coronary artery) followed by reperfusion for ca. 90 minutes prior to contrast agent infusion.
In these studies, infarct sizes and positions are documented by double dye infusion performed immediately after MRI imaging.

[3] = test system: syngeneic breast adenocarcinoma; assay: MRI contrast enhancement of breast adenocarcinoma inoculated in liver (and metastases); format: in vivo, Fisher 344 female rats; conditions: 7 MPI, 0.155 mmol/Kg i.v.
Description: FIG. 2A, FIG. 2B, FIG. 3A, FIG. 3B, FIG. 4A, FIG. 4B, FIG. 4C, FIG. 4D and FIG. 8A, FIG. 8B and FIG. 8C show T1-weighted MRI images (TR/TE=800/45, 550/23 and 600/45) performed at 1.0 and 1.5 Tesla, before (Pre) and after (Post) intravenous (i.v.) injection of Ferrioxamine:Dermatan Sulfate Selective Paramagnetic Contrast Agent, prepared as in Examples 2 and 5, and injected i.v. at a Ferrioxamine dose of 0.155 mmol/Kg into Fisher 344 female rats, with syngeneic breast adenocarcinoma inoculated previously into the liver, such that tumor diameters at the time of imaging are between 1.0 cm and 2.5 cm.
(§1) Tumors are not conspicuous on standard T1-weighted Precontrast images. […] The sustained intervals shown in FIG. 8A, FIG. 8B and FIG. 8C are much longer than those typically reported for Gd:DTPA dimeglumine contrast enhancement at body organ sites.
T1-weighted MRI images (TR-TE=800/45) are performed at 1.0 Tesla, before (Pre) and after (Post) intravenous (i.v.) injection of Gd:MPD-DTPA:DS (DS=435 Type, Opocrin) at a dose of 0.155 mmol/kg into Fisher 344 female rats with syngeneic breast adenocarcinomas inoculated by trocar into the livers, as in Example 18 (above). A T2 scout image (TR/TE=2100/85) is performed in advance of the T1 image contrast series, in order to identify the approximate location(s) of tumor nodule(s) (FIG. 18A). […]

[4] = test system: syngeneic breast adenocarcinoma; assay: Special histologic iron stain of breast adenocarcinoma; format: in vivo, Fisher 344 female rats; conditions: central tumor, 7-10 MPI
Description: FIG. 6. Special histologic stain (heated ferroferricyanide reaction) of formalin-fixed section of syngeneic breast adenocarcinoma excised from liver inoculation site of Fisher 344 female rats: […] Sulfate Selective MRI Contrast Agent.
as §1

[5] = T1 relaxivity (R1), IBM PC20 Minispectrometer / ICP-AA metal measurement; format: physicochemical
Procedure: Batch quantities of the Fe(III) chelate of deferoxamine are prepared as follows. Deferoxamine mesylate (methanesulfonate) (Ciba-Geigy Limited, Basel, Switzerland), 390 g, is dissolved in pharmaceutical-grade water. Alternatively, the chloride salt of deferoxamine may be used. […] This final batch volume is adjusted as desired, typically to a final volume of 2600 mL. Any remaining trace amounts of unreacted Fe(O)OH are removed and the solution also made aseptic, by passing the supernatant through a 0.22 μm Millipore GV-type filter in a Class 100 laminar flow hood. The resulting batch is stored at 4° C. in an autoclaved, sealed glass container until further use (see Examples below). The final concentration of ferrioxamine (DFe) is determined once again by UV-Visible absorbance spectrophotometry at 430 nm.
The pH is adjusted to 7.0 by addition of 1.0 N NaOH. […] In the case of gadolinium oxide, neutralization with 1.0 N NaOH is not needed. […] This precipitate is rewashed with ethanol and centrifuged (as above), washed with acetone plus centrifuged, and the collected precipitate dried over a stream of dry nitrogen.

[6] = comparison value; cited from earlier work
[7] = test system: AT-1 prostate adenocarcinoma; assay: MRI contrast enhancement of AT-1 prostate adenocarcinoma; format: in vivo, Copenhagen rats
Procedure: FIG. 14A, FIG. 14B, FIG. 14C and FIG. 14D show MRI 4.7 Tesla, T1-weighted images of Copenhagen rats with the AT-1 prostate tumor model (as in FIG. 13A, FIG. 13B, FIG. 13C and FIG. 13D), but rats are injected i.v. with Ferrioxamine Selective Contrast Agent, wherein the Active is non-covalently bound to Oversulfated Dermatan Sulfate, the Agent lyophilized and reconstituted with water just prior to administration at a concentration of 0.332 mmol/mL Fe(III) and administered at the usual dose of 0.155 mmol of Fe(III) per Kg.
FIG. 15A, FIG. 15B, FIG. 15C and FIG. 15D show MRI 4.7 Tesla, T1-weighted images of Copenhagen rats with the AT-1 prostate tumor model (as in FIG. 13A, FIG. 13B, FIG. 13C and FIG. 13D), but rats are injected i.v. with Ferrioxamine Selective Contrast Agent, wherein the Active is non-covalently bound to Oversulfated Chondroitin Sulfate, the Agent lyophilized and reconstituted with water just prior to administration at a concentration of 0.332 mmol/mL Fe(III) and administered at the usual dose of 0.155 mmol of Fe(III) per Kg.
FIG. 16A, FIG. 16B, FIG. 16C and FIG. 16D show MRI 4.7 Tesla, T1-weighted images of Copenhagen rats with the AT-1 prostate tumor model (as in FIG. 13A, FIG. 13B, FIG. 13C and FIG. 13D), but rats are injected i.v. with Ferrioxamine Selective Contrast Agent, wherein the Active is non-covalently bound to a non-anticoagulant GAG, Heparan Sulfate, the Agent lyophilized and reconstituted with water just prior to administration at a concentration of 0.332 mmol/mL Fe(III) and administered at the usual dose of 0.155 mmol of Fe(III) per Kg.
FIG. 19A, FIG. 19B, FIG. 19C, FIG. 19D and FIG. 19E show T1-weighted images at 4.7 Tesla (TR/TE=250/8) of Copenhagen rats with syngeneic AT-1 prostate adenocarcinomas inoculated into previously prepared skin pouches [Hahn et al. (1993)], and imaged at diameters of 1.0-2.5 cm.
Based on low anticoagulant activity, safety and projected site-localizationpotential, certain alternative glycosaminoglycan carriers and certain alternative physical forms of the resulting Selective MRI Contrast Agents are compared for their relative in vivo potencies of carrier-mediated tumor localization of bound Ferrioxamine. Because of its high spatial resolution and capacity to detect subtle quantitative differences in agent localization, the AT-1 prostate tumor model of Example 19 is used.

[8] = test system: syngeneic breast adenocarcinoma; conditions: rat, in vivo, iv; cited from earlier work
[9] = Gd(III) when chelated by DTPA; cited from earlier work
[10] = Binding of active to dermatan sulfate carrier (dialysis retention, 500 MW cutoff); conditions: for paired-ion binding of peptide to dermatan sulfate: ca. 60:40 (active to dermatan sulfate)
Procedure: (§2) Multiple batches of Ferrioxamine:Dermatan Sulfate Agent have been prepared.
Vincristine (Sigma Chemical Co., St. Louis) is dissolved in water and mixed with dermatan sulfate at ratios of between 90:10 and 30:70 (w/w) drug to dermatan sulfate.
Amikacin, gentamicin and tobramycin (all obtained from Sigma Chemical Co., St. Louis) are dissolved in water and mixed with either dermatan sulfate (435 Type) or beef lung heparin (Hepar-Kabi-Pharmacia) at ratios of between 90:10 and 30:70 (w/w) drug to glycosaminoglycan.

[11] = physchem; conditions: water
Description: as §2

[12] = test system: antithrombin III; conditions: cited from earlier work

## 5,10,15,20-tetrakis(1-methyl-4-pyridyl)-21H-23H-porphine [iron-porphine]
[1]
  Binding of iron-porphine to heparin: ~100%
  dialysis of iron-porphine alone: nearly completely dialyzed
  molar ratio at maximum binding (iron-porphine:heparin): 18:1

## CC(=O)N([O-])CCCCCNC(=O)CCC(=O)N([O-])CCCCCNC(=O)CCC(=O)N([O-])CCCCCN.[Fe+3] [Ferrioxamine]
[2]
  MRI enhancement of infarct, active without carrier: no detectible enhancement
[2]; listed as Ferrioxamine Agent Alone
  MRI enhancement of infarct, active without carrier: no detectable enhancement
[3]
  MRI contrast enhancement of breast tumor in liver: only very slight or nonexistent
[4]
  staining positivity for iron: complete absence of staining positivity
[5]
  R1 (T1 relaxivity): 1.5-1.8 [mmol.sec]^-1 and 1.6-1.8 [mmol.sec]^-1 and 1.6 (mmol.sec)^-1

## CNC[C@H](O)[C@@H](O)[C@H](O)[C@H](O)CO.CNC[C@H](O)[C@@H](O)[C@H](O)[C@H](O)CO.O=C([O-])CN(CCN(CC(=O)[O-])CC(=O)O)CCN(CC(=O)[O-])CC(=O)O.[Gd+3] [Gd:DTPA dimeglumine]
[6]
  LD50: 4.0 mmol/kg
[7]; 7 MPI
  MRI contrast enhancement of AT-1 tumor: the outer rim is not well delineated
[7]; 20 MPI
  MRI contrast enhancement of AT-1 tumor: Marked early contrast fading occurs overall in the tumor
[7]; 40 MPI
  MRI contrast enhancement of AT-1 tumor: enhancement is nearly reverted to background levels; also recorded: enhancement reverts to essentially background levels
[7]; 60 MPI
  MRI contrast enhancement of AT-1 tumor: no residual contrast, except for central cystic regions

## O=C([O-])CN(CCN(CC(=O)[O-])CC(=O)O)CCN(CC(=O)[O-])CC(=O)O.[Gd+3] [Gd:DTPA]
[8]
  t1/2 at the site: 12 to 20 min
[9]
  in vitro R1: 4.0-4.3 [mmol.sec]^-1

## CC[C@]1(O)C[C@H]2CN(CCc3c([nH]c4ccccc34)[C@@](C(=O)OC)(c3cc4c(cc3OC)N(C=O)[C@H]3[C@@](O)(C(=O)OC)[C@H](OC(C)=O)[C@]5(CC)C=CCN6CC[C@]43[C@@H]65)C2)C1 [Vincristine]
[10]
  retention inside 500 MW cutoff dialysis bag: not the drug alone

## CC(=O)N(O)CCCCCNC(=O)CCC(=O)N(O)CCCCCNC(=O)CCC(=O)N(O)CCCCCN [deferoxamine]
[11]
  solubility: 320 mg/mL (≈ 571 mM)

## N-formyl-met-leu-phe-lys (For-MLFK) [basic white-cell chemoattractant peptide, formulated with dermatan sulfate]
[10]
  paired-ion binding of peptide to dermatan sulfate: Strong paired-ion binding
[10]; emission 518 nm, excitation 257 nm
  fluorescence on binding to dermatan sulfate: fluorescence enhancement

## arg-pro-pro-gly-phe-ser-pro-phe-arg (RPPGFSPFR; formulated with dermatan sulfate) [arginine bradykinin, basic peptide, formulated with dermatan sulfate]
[10]
  paired-ion binding of peptide to dermatan sulfate: Strong paired-ion binding

## dermatan sulfate
[12]
  inhibition of antithrombin III: neither dermatan sulfate nor its 8-12 unit fragment inhibits
